Article PMC8632988, “Inhibition of SYK and cSrc kinases can protect bone and cartilage in preclinical models of osteoarthritis and rheumatoid arthritis” (Scientific Reports, 2021)
Several values for one entry are separate records, joined by “and”; a condition that tells them apart may be missing. Identical values can stand only once.

What was measured:
c-Src = target: T1, c-Src (Homo sapiens, UniProt P12931); test: cSrc inhibition and kinase selectivity profile assay; type: biochemical; conditions: 500 nM; relative to DMSO; read-out: Residual enzymatic activity
T1 construct: purchased Reaction Biology Corporation (assay service)
Protocol: (§1) The activity of MT-SYK-03 against cSrc kinase and selectivity profile towards other 341 kinases was determined at Reaction Biology Corporation (Malvern, PA, USA) using the standard kinase assay protocol. […]; unbound phosphate was removed by extensive washing of filters in phosphoric acid. Kinase activity data was expressed as the percent remaining kinase activity in test samples compared to vehicle (dimethyl sulfoxide) reactions based on the radioactivity of reaction products (see Table S2). Experiment was replicated twice.

DYRK4 = target: T2, DYRK4 (Homo sapiens, UniProt Q9NR20); test: Kinase selectivity profile assay; type: biochemical; conditions: 500 nM; relative to DMSO; read-out: Residual enzymatic activity
T2 construct: purchased Reaction Biology Corporation
Protocol: The activity of MT-SYK-03 against cSrc kinase and selectivity profile towards other 341 kinases was determined at Reaction Biology Corporation (Malvern, PA, USA) using the standard kinase assay protocol. […] Kinase activity data was expressed as the percent remaining kinase activity in test samples compared to vehicle (dimethyl sulfoxide) reactions based on the radioactivity of reaction products (see Table S2). Experiment was replicated twice.

PAK6 = target: T3, PAK6 (Homo sapiens, UniProt Q9NQU5); test: Kinase selectivity profile assay; type: biochemical; conditions: 500 nM; relative to DMSO; read-out: Residual enzymatic activity
T3 construct: purchased Reaction Biology Corporation
Protocol: as §1

TSSK2 = target: T4, TSSK2 (Homo sapiens, UniProt Q96PF2); test: Kinase selectivity profile assay; type: biochemical; conditions: 500 nM; relative to DMSO; read-out: Residual enzymatic activity
T4 construct: purchased Reaction Biology Corporation
Protocol: as §1

CDK5/p35 = target: T5, CDK5/p35 (Homo sapiens, UniProt Q00535); test: Kinase selectivity profile assay; type: biochemical; conditions: 500 nM; relative to DMSO; read-out: Residual enzymatic activity
T5 construct: purchased Reaction Biology Corporation
Protocol: as §1

341 kinases = test: Kinase selectivity profile, whole panel; type: biochemical, human; conditions: 500 nM
Protocol: as §1

mongrel rats, AIA model = test: Adjuvant-induced arthritis in rats; type: in vivo
Protocol: Rat adjuvant-induced arthritis (AIA) model was performed at Pharmenterprises, Russia as described previously^3 and approved by Ethics Committee of Pharmenterprises. Male 10 week old mongrel rats were divided into eleven groups: negative control (#1), positive control (#2) and nine treatment groups (#3–11), ten […] in each group. Group #1 was left intact, while subplantar injection of 0.1 mL of Complete Freund’s adjuvant (CFA, Sigma) was made on day 0 at right paws of rats in groups […]. […] Disease progression was monitored by measuring volumes of the right (involved) and left (non-involved) paws on days 0, 14, 18, 21, 25, and 28.

Lewis rats, CIA model = test: Collagen-induced semi-established arthritis model in rats; type: in vivo, rat
Protocol: Rat CIA model was performed was performed at Pharmenterprises, Russia and approved by Ethics Committee of Pharmenterprises. Female Lewis rats with body weight of 164–183 g (Charles River Laboratories, Inc., Wilmington, MA) were injected with porcine type II collagen (Chondrex) emulsified with Freund’s Incomplete Adjuvant (Sigma Aldrich) at two sites at the base of the tail according to standard protocol. On day 7, the rats were boosted with a second subcutaneous injection. On day 6 of the study, rats were randomized by body weight into six groups: a control group of four, and five treatment groups of eight. […] Disease progression was monitored via daily ankle thickness measurements. At study termination on day 16 rats were anesthetized with Isoflurane, bled by vacutainer through the descending aorta to exsanguinate and then euthanized for tissue collection. Hind paws were transected at the level of the medial and lateral malleolus, weighed, and collected for microscopy.
[…]

[1] = ankle, day 16, MTX 0.075 mg/kg PO QD + test article vehicle PO BID, group mean
[2] = ankle, day 16, MTX 0.075 mg/kg PO QD + test article vehicle PO BID, individual joint (animal, R/L)
[3] = ankle, day 16, MTX 0.075 mg/kg PO QD + test article vehicle PO BID, vs vehicle
[4] = knee, day 16, MTX 0.075 mg/kg PO QD + test article vehicle PO BID, group mean
[5] = knee, day 16, MTX 0.075 mg/kg PO QD + test article vehicle PO BID, individual joint (animal, R/L)
[6] = knee, day 16, MTX 0.075 mg/kg PO QD + test article vehicle PO BID, vs vehicle

T3 sequence (Q9NQU5 whole entry): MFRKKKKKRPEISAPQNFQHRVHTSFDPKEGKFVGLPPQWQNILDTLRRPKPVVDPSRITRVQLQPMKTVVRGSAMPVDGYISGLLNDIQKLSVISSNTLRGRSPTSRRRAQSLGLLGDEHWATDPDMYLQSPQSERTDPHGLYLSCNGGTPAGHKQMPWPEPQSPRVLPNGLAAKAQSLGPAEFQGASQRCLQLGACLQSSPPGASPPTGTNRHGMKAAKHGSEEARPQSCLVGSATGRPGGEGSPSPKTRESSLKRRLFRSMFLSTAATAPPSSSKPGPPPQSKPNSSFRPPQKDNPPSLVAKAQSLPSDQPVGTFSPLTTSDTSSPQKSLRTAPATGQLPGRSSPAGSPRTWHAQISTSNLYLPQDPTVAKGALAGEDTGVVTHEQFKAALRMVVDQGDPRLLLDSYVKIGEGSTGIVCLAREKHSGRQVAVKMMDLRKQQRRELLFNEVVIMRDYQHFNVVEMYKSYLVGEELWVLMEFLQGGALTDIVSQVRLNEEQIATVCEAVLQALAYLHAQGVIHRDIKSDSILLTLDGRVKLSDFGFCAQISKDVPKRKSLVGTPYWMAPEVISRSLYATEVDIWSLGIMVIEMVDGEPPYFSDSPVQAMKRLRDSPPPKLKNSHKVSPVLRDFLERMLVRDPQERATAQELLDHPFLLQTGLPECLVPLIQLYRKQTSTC
T2 sequence (Q9NR20 whole entry): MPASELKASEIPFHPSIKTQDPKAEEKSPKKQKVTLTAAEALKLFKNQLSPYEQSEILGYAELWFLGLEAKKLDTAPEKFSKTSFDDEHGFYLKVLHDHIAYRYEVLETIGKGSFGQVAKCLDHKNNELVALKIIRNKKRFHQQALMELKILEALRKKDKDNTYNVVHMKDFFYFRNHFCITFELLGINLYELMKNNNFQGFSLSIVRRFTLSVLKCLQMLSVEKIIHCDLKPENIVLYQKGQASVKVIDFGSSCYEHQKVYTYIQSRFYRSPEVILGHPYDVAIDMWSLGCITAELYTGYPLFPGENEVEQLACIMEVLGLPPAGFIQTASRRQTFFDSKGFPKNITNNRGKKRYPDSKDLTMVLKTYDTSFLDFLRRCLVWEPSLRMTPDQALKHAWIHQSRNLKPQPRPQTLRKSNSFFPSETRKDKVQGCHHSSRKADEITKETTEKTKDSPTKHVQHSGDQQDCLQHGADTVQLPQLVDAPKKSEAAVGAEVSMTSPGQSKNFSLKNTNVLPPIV
T4 sequence (Q96PF2 whole entry): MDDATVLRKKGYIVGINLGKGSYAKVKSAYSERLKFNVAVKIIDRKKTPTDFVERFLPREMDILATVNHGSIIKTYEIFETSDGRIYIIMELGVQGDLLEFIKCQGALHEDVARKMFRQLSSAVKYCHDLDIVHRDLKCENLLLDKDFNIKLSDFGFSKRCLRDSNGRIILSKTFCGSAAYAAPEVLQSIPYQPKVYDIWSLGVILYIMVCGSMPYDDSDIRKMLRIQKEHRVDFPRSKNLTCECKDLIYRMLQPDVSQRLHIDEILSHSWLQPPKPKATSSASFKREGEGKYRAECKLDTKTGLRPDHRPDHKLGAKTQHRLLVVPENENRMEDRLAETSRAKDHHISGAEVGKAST
T1 sequence (P12931 whole entry): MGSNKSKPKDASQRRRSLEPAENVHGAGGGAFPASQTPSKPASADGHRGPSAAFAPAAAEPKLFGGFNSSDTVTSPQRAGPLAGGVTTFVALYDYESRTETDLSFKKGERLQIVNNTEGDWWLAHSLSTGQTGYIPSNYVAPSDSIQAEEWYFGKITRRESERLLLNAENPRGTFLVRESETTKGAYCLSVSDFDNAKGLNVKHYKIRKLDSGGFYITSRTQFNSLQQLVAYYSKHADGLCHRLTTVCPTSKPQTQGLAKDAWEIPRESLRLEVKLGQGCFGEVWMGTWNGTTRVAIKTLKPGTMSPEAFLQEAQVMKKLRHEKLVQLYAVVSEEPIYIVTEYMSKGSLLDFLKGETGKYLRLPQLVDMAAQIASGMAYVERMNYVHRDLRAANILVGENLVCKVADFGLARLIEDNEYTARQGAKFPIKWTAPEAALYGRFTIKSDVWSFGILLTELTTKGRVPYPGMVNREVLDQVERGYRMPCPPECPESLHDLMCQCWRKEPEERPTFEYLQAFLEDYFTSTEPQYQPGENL
T5 sequence (Q00535 whole entry): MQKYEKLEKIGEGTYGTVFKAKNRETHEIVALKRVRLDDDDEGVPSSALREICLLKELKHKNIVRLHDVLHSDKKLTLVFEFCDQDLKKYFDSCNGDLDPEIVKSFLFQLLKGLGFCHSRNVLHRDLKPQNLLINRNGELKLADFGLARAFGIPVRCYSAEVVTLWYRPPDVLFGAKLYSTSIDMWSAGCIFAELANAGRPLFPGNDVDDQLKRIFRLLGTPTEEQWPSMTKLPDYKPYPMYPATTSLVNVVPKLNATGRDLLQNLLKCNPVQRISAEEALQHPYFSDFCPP
T5 sequence (Q15078 whole entry partner): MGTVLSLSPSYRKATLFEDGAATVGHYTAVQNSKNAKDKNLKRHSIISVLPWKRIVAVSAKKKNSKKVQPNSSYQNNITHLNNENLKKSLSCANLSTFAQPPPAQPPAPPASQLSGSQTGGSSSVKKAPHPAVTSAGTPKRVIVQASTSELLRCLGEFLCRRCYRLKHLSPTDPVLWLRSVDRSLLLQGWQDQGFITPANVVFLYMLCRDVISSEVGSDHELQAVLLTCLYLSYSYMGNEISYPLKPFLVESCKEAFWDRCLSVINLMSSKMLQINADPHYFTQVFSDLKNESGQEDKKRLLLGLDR

COc1cc(Nc2ncc(F)c(Nc3ccc4c(n3)NC(=O)C(C)(C)O4)n2)cc(OC)c1OC [R406, reference compound]
remaining activity at 0.5 µM (c-Src): 6.8%
remaining activity at 0.5 µM (DYRK4): 77.1%
remaining activity at 0.5 µM (PAK6): 81.2%
remaining activity at 0.5 µM (TSSK2): 95.2%
remaining activity at 0.5 µM (CDK5/p35): 82.9%
Number of kinases inhibited by more than 50% (341 kinases): 104 kinases
Number of kinases inhibited by more than 80% (341 kinases): 50 kinases
Number of kinases inhibited by more than 90% (341 kinases): 26 kinases

CN(Cc1cnc2nc(N)nc(N)c2n1)c1ccc(C(=O)N[C@@H](CCC(=O)O)C(=O)O)cc1 [MTX, methotrexate, reference compound]
Animal death (mongrel rats, AIA model; Methotrexate 0.2 mg/kg QD intragastric, 14 days): 0%
Animal death (mongrel rats, AIA model; Methotrexate 0.2 mg/kg QD intragastric, 18 days): 0%
Animal death (mongrel rats, AIA model; Methotrexate 0.2 mg/kg QD intragastric, 21 days): 0%
Animal death (mongrel rats, AIA model; Methotrexate 0.2 mg/kg QD intragastric, 25 days): 10%
Animal death (mongrel rats, AIA model; Methotrexate 0.2 mg/kg QD intragastric, 28 days): 20%
Animal death (mongrel rats, AIA model; Methotrexate 0.5 mg/kg QD intragastric, 14 days): 0%
Animal death (mongrel rats, AIA model; Methotrexate 0.5 mg/kg QD intragastric, 18 days): 0%
Animal death (mongrel rats, AIA model; Methotrexate 0.5 mg/kg QD intragastric, 21 days): 0%
Animal death (mongrel rats, AIA model; Methotrexate 0.5 mg/kg QD intragastric, 25 days): 20%
Animal death (mongrel rats, AIA model; Methotrexate 0.5 mg/kg QD intragastric, 28 days): 70%
Rats died (mongrel rats, AIA model; rat AIA, MTX 0.2 mg/kg): 20%
Rats died (mongrel rats, AIA model; rat AIA, MTX 0.5 mg/kg): 70%
Volume of treated (CFA-injected) paws (mongrel rats, AIA model; rat AIA, day 28): statistically significant reductions of paw volume
Volume of non-involved paws (mongrel rats, AIA model; rat AIA, high-dose MTX, day 28): decreased the volume of non-involved paws
Volume of non-involved paws (mongrel rats, AIA model; rat AIA, low-dose MTX, day 28): no statistically significant effect
Bone Resorption score, Mean (Lewis rats, CIA model; [1]): 1.19
Cartilage Damage score, Mean (Lewis rats, CIA model; [1]): 2.00
Inflammation score, Mean (Lewis rats, CIA model; [1]): 3.88
Pannus score, Mean (Lewis rats, CIA model; [1]): 1.19
Periosteal Bone Formation score, Mean (Lewis rats, CIA model; [1]): 0.63
Periosteal Naïve Bone Width Actual, Mean (Lewis rats, CIA model; [1]): 126.00 μm
Summed Histopathology Scores, Mean (Lewis rats, CIA model; [1]): 8.88
Bone Resorption score (0=normal to 5=severe) (Lewis rats, CIA model; [2]): 2 and 0 and 1 and 0.5
Cartilage Damage score (0=normal to 5=severe) (Lewis rats, CIA model; [2]): 3 and 0.5 and 2
Inflammation score (0=normal to 5=severe) (Lewis rats, CIA model; [2]): 5 and 1 and 4 and 3 and 2
Pannus score (0=normal to 5=severe) (Lewis rats, CIA model; [2]): 2 and 0 and 1 and 0.5
Periosteal Bone Formation score (0=normal to 5=severe) (Lewis rats, CIA model; [2]): 1 and 0 and 0.5
Periosteal Naïve Bone Width 16x Measure (Lewis rats, CIA model; [2]): 3 and 4 and 0 and 2 and 1
Periosteal Naïve Bone Width Actual (Lewis rats, CIA model; [2]): 189 μm and 252 μm and 0 μm and 126 μm and 63 μm
Summed Histopathology Scores (Lewis rats, CIA model; [2]): 13 and 1.5 and 9.5 and 8.5 and 6.5 and 12 and 4
Periosteal Naïve Bone Width, ANOVA to Vehicle (Lewis rats, CIA model; ankle, day 16, MTX 0.075 mg/kg PO QD + test article vehicle PO BID, p value): p < 0.05
Bone Resorption score, % inhibition (Lewis rats, CIA model; [3]): 19%
Cartilage Damage score, % inhibition (Lewis rats, CIA model; [3]): 17%
Inflammation score, % inhibition (Lewis rats, CIA model; [3]): 14%
Pannus score, % inhibition (Lewis rats, CIA model; [3]): 19%
Periosteal Bone Formation score, % inhibition (Lewis rats, CIA model; [3]): 51%
Periosteal Naïve Bone Width, % inhibition (Lewis rats, CIA model; [3]): 44%
Summed Histopathology Scores, % inhibition (Lewis rats, CIA model; [3]): 20%
Bone Resorption score, Mean (Lewis rats, CIA model; [4]): 0.28
Cartilage Damage score, Mean (Lewis rats, CIA model; [4]): 0.66
Inflammation score, Mean (Lewis rats, CIA model; [4]): 2.03
Pannus score, Mean (Lewis rats, CIA model; [4]): 0.44
Summed Histopathology Scores, Mean (Lewis rats, CIA model; [4]): 3.41
Bone Resorption score (0=normal to 5=severe) (Lewis rats, CIA model; [5]): 0.5 and 0 and 1
Cartilage Damage score (0=normal to 5=severe) (Lewis rats, CIA model; [5]): 1 and 0.5 and 0 and 2
Inflammation score (0=normal to 5=severe) (Lewis rats, CIA model; [5]): 3 and 0.5 and 1 and 0 and 5 and 4 and 2
Pannus score (0=normal to 5=severe) (Lewis rats, CIA model; [5]): 0.5 and 0 and 1
Summed Histopathology Scores (Lewis rats, CIA model; [5]): 5 and 4.5 and 0.5 and 2 and 1 and 0 and 9 and 6 and 5.5 and 3
Bone Resorption score, % inhibition (Lewis rats, CIA model; [6]): 61%
Cartilage Damage score, % inhibition (Lewis rats, CIA model; [6]): 50%
Inflammation score, % inhibition (Lewis rats, CIA model; [6]): 36%
Pannus score, % inhibition (Lewis rats, CIA model; [6]): 42%
Summed Histopathology Scores, % inhibition (Lewis rats, CIA model; [6]): 43%
Decrease of periosteal bone width in knee joints (Lewis rats, CIA model; rat CIA, MTX 0.075 mg/kg PO QD): ~ 43%
Histopathology scores for cartilage damage and bone resorption, ankles and knees (Lewis rats, CIA model; rat CIA, day 16): did not show statistical significance for any parameter
